MIC data for 22 compounds are collected here from US20260308172A1, “TRICYCLIC COMPOUNDS FOR TREATMENT OF BACTERIAL INFECTIONS” (priority 2023, published 2026).

Experiment [1] has as its system Escherichia coli ATCC 25922. The experiment can be described thus: Minimal Inhibitory Concentration (MIC) assay, Escherichia coli ATCC 25922. In kind it is cell-based. Particulars: ATCC25922, 20 h, read-out: MIC Escherichia coli ATCC25922. The procedure:
(§1) The antibacterial activity of the compounds of the present invention was evaluated against the commonly used quality control strain Escherichia coli ATCC 25922 and the rifampin-resistant mutant strain Klebsiella pneumonia ATCC 43816. Both were originally derived from human clinical samples and are available from ATCC (American Type Culture Collection). The in vitro potency of compounds to inhibit Escherichia coli (ATCC 25922) and Klebsiella pneumonia (ATCC 43816) growth was assessed by the MIC (Minimal Inhibitory Concentration) broth dilution method. Specifically compound dilutions were prepared from 10 mM DMSO stock solutions as follows: i) serial 2-fold dilution in 20 μL DMSO were prepared in a master plate (Greiner, Cat No: 651201), ii) 180 μL sterile distilled water was added to each aliquot and iii) 10 μL diluted compounds were transferred into a new assay plate (Costar, 3599).
(§2) Vials of each test microorganisms were maintained frozen in the vapor phase of a liquid nitrogen freezer. Single-use frozen vials of the two strains Escherichia coli ATCC 25922 (KWIKSTIK, 0335K) and Klebsiella pneumonia ATCC 43816, with predetermined CFU/mL, were taken out from the freezer, thawed at room temperature, and diluted in Cation-Adjusted Mueller Hinton Broth (CAMHB) to achieve a final inoculum of 5×10^5 CFU/mL. 90 μL bacteria containing broth was dispensed to the assay plate containing the pre-dispensed compound dilutions and mixed by pipetting 5 times.
(§3) Then the assay plates were incubated for 20 hours at 35° C. in ambient air. Following incubation, the MIC (μg/mL), the lowest concentration of drug that inhibits visible growth of the microorganism was read with the help of a magnification mirror and recorded.

Experiment [2] deals with Klebsiella pneumonia ATCC 43816. Nature of the experiment: Minimal Inhibitory Concentration (MIC) assay, Klebsiella pneumonia ATCC 43816. It is filed as cell-based. Conditions: Klebsiella pneumoniae, ATCC43816, 20 h, read-out: MIC Klebsiella pneumoniae ATCC43816. The procedure: as §1, §2, §3

SMILES strings stand for the structures. ≈ marks a conversion by molar mass, not a printed value.

In the case of `O=C1CC(NC2CCNCC2)C2COc3cc(S(=O)(=O)N4CCN(c5cc(C(F)(F)[C@@H]6COCCO6)cc(Cl)n5)CC4)ccc3N12` (mixture of isomers) [Example 027, 7-[4-[6-Chloro-4-[difluoro-[rac-(2S)-1,4-dioxan-2-yl]methyl]-2-pyridyl]piperazin-1-yl]sulfonyl-3-(4-piperidylamino)-2,3,3a,4-tetrahydropyrrolo[2,1-c][1,4]benzoxazin-1-one], the values for the MIC in experiment [1] and in experiment [2] were 2.1 µg/mL (≈ 3.07 µM) and 2.14 µg/mL (≈ 3.13 µM), respectively.
In the same order, the values of `NC[C@@H]1OC(=O)N2c3ccc(S(=O)(=O)N4CCN(c5cc(C(F)(F)F)cc(Cl)n5)CC4)cc3OC[C@@H]12` (relative stereo) [Example 001] are 0.46 µg/mL (≈ 0.84 µM) and 0.46 µg/mL (≈ 0.84 µM).
The matching figures for `NC[C@@H]1OC(=O)N2c3ccc(S(=O)(=O)N4CCN(c5cc(S(=O)(=O)C6CC6)cc(Cl)n5)CC4)cc3OC[C@@H]12` (relative stereo) [Example 003]: 0.97 µg/mL (≈ 1.66 µM) and 1.94 µg/mL (≈ 3.32 µM).
The matching figures for `NC[C@@H]1OC(=O)N2c3ccc(S(=O)(=O)N4CCN(c5cc(S(=O)(=O)c6ccc(N)cc6)cc(Cl)n5)CC4)cc3OC[C@@H]12` (relative stereo) [Example 004]: 0.52 µg/mL (≈ 0.819 µM) and 0.26 µg/mL (≈ 0.409 µM).
For the compound `NC[C@H]1OC(=O)N2c3ccc(S(=O)(=O)N4CCN(c5cc(S(=O)(=O)C6CC6)cc(Cl)n5)CC4)cc3OC[C@@H]12` (relative stereo) [Example 005], the MIC in experiment [1] is 0.97 µg/mL (≈ 1.66 µM); in experiment [2], 1 µg/mL (≈ 1.71 µM).
In the same order, the values of `NC[C@@H]1OC(=O)N2c3ccc(S(=O)(=O)N4CCN(c5cc(C(F)(F)C6C7COCC76)cc(Cl)n5)CC4)cc3OC[C@@H]12` (relative stereo) [Example 018] are 0.28 µg/mL (≈ 0.457 µM) and 0.28 µg/mL (≈ 0.457 µM).
The matching figures for `Cc1cc(C(F)(F)c2cc(Cl)nc(N3CCN(S(=O)(=O)c4ccc5c(c4)OC[C@H]4[C@H](CN)OC(=O)N54)CC3)c2)ccn1` (relative stereo) [Example 019]: 0.29 µg/mL (≈ 0.467 µM) and 0.28 µg/mL (≈ 0.451 µM).
As for `O=C1O[C@@H](CO)[C@@H]2COc3cc(S(=O)(=O)N4CCN(c5cc(C(F)(F)[C@@H]6CNCCO6)cc(Cl)n5)CC4)ccc3N12` (relative stereo) [Example 050, trans-7-[4-[6-chloro-4-[difluoro-[(2S)-morpholin-2-yl]methyl]-2-pyridyl]piperazin-1-yl]sulfonyl-3-(hydroxymethyl)-3a,4-dihydro-3H-oxazolo[4,3-c][1,4]benzoxazin-1-one], the MIC in experiment [1] and in experiment [2] was 0.48 µg/mL (≈ 0.779 µM) throughout.
Consider `CN1CCC(C(F)(F)c2cc(Cl)nc(N3CCN(S(=O)(=O)c4ccc5c(c4)OC[C@H]4[C@@H](CN)OC(=O)N54)CC3)c2)CC1` (stereo in doubt) [Example 010, cis-3-(aminomethyl)-7-[4-[6-chloro-4-[difluoro-(1-methyl-4-piperidyl)methyl]-2-pyridyl]piperazin-1-yl]sulfonyl-3a,4-dihydro-3H-oxazolo[4,3-c][1,4]benzoxazin-1-one], for which the MIC in experiment [1] and in experiment [2] was 0.98 µg/mL (≈ 1.56 µM) each time.
In the case of `NC[C@H]1OC(=O)N2c3ccc(S(=O)(=O)N4CCN(c5cc(C(F)(F)C6COCCO6)cc(Cl)n5)CC4)cc3OC[C@H]12` (stereo in doubt) [Example 017, trans-3-(aminomethyl)-7-[4-[6-chloro-4-[1,4-dioxan-2-yl(difluoro)methyl]-2-pyridyl]piperazin-1-yl]sulfonyl-3a,4-dihydro-3H-oxazolo[4,3-c][1,4]benzoxazin-1-one], the MIC in experiment [1] and in experiment [2] was 0.57 µg/mL (≈ 0.925 µM) throughout.
Regarding `CN1CC=C(C(F)(F)c2cc(Cl)nc(N3CCN(S(=O)(=O)c4ccc5c(c4)OC[C@H]4[C@@H](CN)OC(=O)N54)CC3)c2)CC1` (stereo in doubt) [Example 020, cis-3-(aminomethyl)-7-[4-[6-chloro-4-[difluoro-(1-methyl-3,6-dihydro-2H-pyridin-4-yl)methyl]-2-pyridyl]piperazin-1-yl]sulfonyl-3a,4-dihydro-3H-oxazolo[4,3-c][1,4]benzoxazin-1-one], the MIC in experiment [1] and in experiment [2] was 0.29 µg/mL (≈ 0.464 µM) each time.
With `O=C1O[C@H](CO)[C@@H]2COc3cc(S(=O)(=O)N4CCN(c5cc(C(F)(F)[C@H]6CNCCO6)cc(Cl)n5)CC4)ccc3N12` (stereo in doubt) [Example 032, cis-7-[4-[6-chloro-4-[difluoro-[(2R)-morpholin-2-yl]methyl]-2-pyridyl]piperazin-1-yl]sulfonyl-3-(hydroxymethyl)-3a,4-dihydro-3H-oxazolo[4,3-c][1,4]benzoxazin-1-one], the values for the minimal inhibitory concentration (MIC) in experiment [1] and in experiment [2] were 0.24 µg/mL (≈ 0.39 µM) and 0.241 µg/mL (≈ 0.391 µM), respectively.
On to `NC1CC(=O)N2c3ccc(S(=O)(=O)N4CCN(c5cc(C(F)(F)C6COCCO6)cc(Cl)n5)CC4)cc3OCC12` (stereo not shown) [Example 008, 3-Amino-7-[4-[6-chloro-4-[1,4-dioxan-2-yl(difluoro)methyl]-2-pyridyl]piperazin-1-yl]sulfonyl-2,3,3a,4-tetrahydropyrrolo[2,1-c][1,4]benzoxazin-1-one], for which the MIC in experiment [1] and in experiment [2] was 0.5 µg/mL (≈ 0.833 µM) throughout.
On to `Cc1cc(C(F)(F)F)nc(N2CCN(S(=O)(=O)c3ccc4c(c3)OCC3CCC(=O)N43)CC2)n1` (stereo not shown) [Example 011, 7-[4-[4-Methyl-6-(trifluoromethyl)pyrimidin-2-yl]piperazin-1-yl]sulfonyl-2,3,3a,4-tetrahydropyrrolo[2,1-c][1,4]benzoxazin-1-one], for which the MIC in experiment [1] was 1.4 µg/mL (≈ 2.81 µM); in experiment [2], 2.87 µg/mL (≈ 5.77 µM).
For the compound `O=C1CCC2COc3cc(S(=O)(=O)N4CCN(c5cc(C(F)(F)F)cc(Cl)n5)CC4)ccc3N12` (stereo not shown) [Example 012, 7-[4-[6-Chloro-4-(trifluoromethyl)-2-pyridyl]piperazin-1-yl]sulfonyl-2,3,3a,4-tetrahydropyrrolo[2,1-c][1,4]benzoxazin-1-one], the MIC in experiment [1] amounted to 0.61 µg/mL (≈ 1.18 µM).
As to `Nc1ccc(S(=O)(=O)c2cc(Cl)nc(N3CCN(S(=O)(=O)c4ccc5c(c4)OCC4CCC(=O)N54)CC3)c2)cc1` (stereo not shown) [Example 013, 7-[4-[4-(4-Aminophenyl)sulfonyl-6-chloro-2-pyridyl]piperazin-1-yl]sulfonyl-2,3,3a,4-tetrahydropyrrolo[2,1-c][1,4]benzoxazin-1-one], the MIC in experiment [1] came to 0.47 µg/mL (≈ 0.778 µM); in experiment [2] it was 0.24 µg/mL (≈ 0.397 µM).
In the same order, the values of `Nc1ccc(S(=O)(=O)c2cc(Br)nc(N3CCN(S(=O)(=O)c4ccc5c(c4)OCC4CCC(=O)N54)CC3)c2)cc1` (stereo not shown) [Example 014, 7-[4-[4-(4-Aminophenyl)sulfonyl-6-bromo-2-pyridyl]piperazin-1-yl]sulfonyl-2,3,3a,4-tetrahydropyrrolo[2,1-c][1,4]benzoxazin-1-one] are 0.51 µg/mL (≈ 0.786 µM) and 0.51 µg/mL (≈ 0.786 µM).
The matching figures for `Cc1cc(C(F)(F)F)nc(N2CCN(S(=O)(=O)c3ccc4c(c3)OC[C@@H]3[C@H](CO)OC(=O)N43)CC2)n1` [Example 015, (3R,3aR)-3-(hydroxymethyl)-7-[4-[4-methyl-6-(trifluoromethyl)pyrimidin-2-yl]piperazin-1-yl]sulfonyl-3a,4-dihydro-3H-oxazolo[4,3-c][1,4]benzoxazin-1-one]: 0.5 µg/mL (≈ 0.944 µM) and 0.76 µg/mL (≈ 1.44 µM).
The matching figures for `CN1CCC(C(F)(F)c2cc(Cl)nc(N3CCN(S(=O)(=O)c4ccc5c(c4)OCC4CCC(=O)N54)CC3)c2)CC1` (stereo not shown) [Example 016, 7-[4-[6-Chloro-4-[difluoro-(1-methyl-4-piperidyl)methyl]-2-pyridyl]piperazin-1-yl]sulfonyl-2,3,3a,4-tetrahydropyrrolo[2,1-c][1,4]benzoxazin-1-one]: 1.9 µg/mL (≈ 3.19 µM) and 1.86 µg/mL (≈ 3.12 µM).
Consider `NC[C@H]1OC(=O)N2c3ccc(S(=O)(=O)N4CCN(c5cc(C(F)(F)[C@@H]6COCCO6)cc(Cl)n5)CC4)cc3OC[C@@H]12` [Example 021, (3R,3aS)-3-(Aminomethyl)-7-[4-[6-chloro-4-[[(2S)-1,4-dioxan-2-yl]-difluoro-methyl]-2-pyridyl]piperazin-1-yl]sulfonyl-3a,4-dihydro-3H-oxazolo[4,3-c][1,4]benzoxazin-1-one], for which the MIC was found to be 0.26 µg/mL (≈ 0.422 µM) in experiment [1] and 0.51 µg/mL (≈ 0.828 µM) in experiment [2].
The matching figures for `NC[C@@H]1OC(=O)N2c3ccc(S(=O)(=O)N4CCN(c5cc(C(F)(F)[C@@H]6COCCO6)cc(Cl)n5)CC4)cc3OC[C@H]12` [Example 022, (3S,3aR)-3-(aminomethyl)-7-[4-[6-chloro-4-[[(2S)-1,4-dioxan-2-yl]-difluoro-methyl]-2-pyridyl]piperazin-1-yl]sulfonyl-3a,4-dihydro-3H-oxazolo[4,3-c][1,4]benzoxazin-1-one]: 0.44 µg/mL (≈ 0.714 µM) and 0.3 µg/mL (≈ 0.487 µM).
The matching figures for `NC[C@@H]1OC(=O)N2c3ccc(S(=O)(=O)N4CCN(c5cc(C(F)(F)[C@H]6CNCCO6)cc(Cl)n5)CC4)cc3OC[C@@H]12` [Example 023, (3S,3aS)-3-(aminomethyl)-7-[4-[6-chloro-4-[difluoro-[(2R)-morpholin-2-yl]methyl]-2-pyridyl]piperazin-1-yl]sulfonyl-3a,4-dihydro-3H-oxazolo[4,3-c][1,4]benzoxazin-1-one]: 0.33 µg/mL (≈ 0.537 µM) and 0.33 µg/mL (≈ 0.537 µM).
